Like-named read-outs stand apart in the source and are kept apart here.
What was measured:
[1] = system: murine P388 lymphocytic leukemia cells; test: In vitro anti-tumor activity against murine P388 lymphocytic leukemia cells (MTT, 72 h); format: cell-based; conditions: Mus musculus; murine P388 cells, 72 h, MTT; read-out: IC50 (50% proliferation inhibitory concentration)
In short: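 MTT assay, 72 h exposure; formazan dissolved in DMSO after centrifugation and supernatant removal. Absorbance read at 570 nm with 690 nm reference. IC50 (μg/ml) by least squares.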

[2] = system: KB human nasopharynx cancer; test: In vitro anti-tumor activity against KB human nasopharynx cancer (MTT); format: cell-based; conditions: KB, 72 h, MTT, read-out: IC50
In short: (§1)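 Read-out is MTT formazan, dissolved in dimethyl sulfoxide after a 4-hour MTT (5 mg/ml) incubation. Before that, seeded cells (500 to 2,000 per well) grew 20 hours at 37° C and then received compound for 72 hours.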

[3] = system: HMV2 human melanoma; test: In vitro anti-tumor activity against HMV-2 human melanoma (MTT); format: cell-based; conditions: HMV-2, 72 h, MTT, read-out: IC50
In short: as §1

[4] = system: AZ521 human stomach cancer; test: In vitro anti-tumor activity against AZ-521 human stomach cancer (MTT); format: cell-based; conditions: AZ-521, 72 h, MTT, read-out: IC50
In short: as §1

[5] = system: MKN45 human stomach cancer; test: In vitro anti-tumor activity against MKN45 human stomach cancer (MTT); format: cell-based; conditions: MKN-45, MKN45, 72 h, MTT, read-out: IC50
In short: as §1

[6] = system: WiDr human colorectal cancer; test: In vitro anti-tumor activity against WiDr human colorectal cancer (MTT); format: cell-based; conditions: 72 h, MTT, read-out: IC50
In short: as §1

[7] = system: C33A human cervix cancer; test: In vitro anti-tumor activity against C-33A human cervix cancer (MTT); format: cell-based; conditions: C-33A, 72 h, MTT, read-out: IC50
In short: as §1

[8] = system: A427 human lung cancer; test: In vitro anti-tumor activity against A-427 human lung cancer (MTT); format: cell-based; conditions: A-427, 72 h, MTT, read-out: IC50
In short: as §1

[9] = system: murine P388 lymphocytic leukemia cells; test: Increases in life span of mice implanted with murine P388 lymphocytic leukemia cells; format: in vivo, SLC: BDF1 mice; conditions: Mus musculus, P388, ip, 720 h, ip
[10] = system: colon 26 murine tumor cells; test: Tumor growth inhibition effect on colon 26 murine tumor cells implanted mice; format: in vivo, SLC: CDF1 mice; conditions: Mus musculus, Colon 26, 504 h; ip, 3.13 mg/kg once a day, days 1-9; day 21 or 22; read-out: Tumor growth inhibition rate IR (%)
In short: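 CDF1 female mice (7–9 weeks, 7 per group) implanted intracutaneously in the abdomen with 2% brei of colon 26 cells. Compound given ip once daily from day 1 to day 9. Tumor weight estimated from diameters on day 21 or 22; IR % = [1 − (treated MTW/control MTW)] × 100.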

[11] = Acute toxicity; conditions: mouse, in vivo, mice, 14th day
Protocol: Solutions of test compounds in predetermined concentrations were administered (0.1 ml/10 g body weight) to female BALB/c CrSlc mice (5 to 10 animals per one group, 10 weeks old) respectively, and, thus, LD50 values were calculated from the mortalities of the mice on the 14th day after the administration.

[12] = Solubility; conditions: water
[13] = system: tumor; conditions: Cancer Research 52, 2818 (1992); cited from earlier work
[14] = NCI criterion, read-out: Evaluation
[15] = days 1 and 5, in solution, read-out: ILS (%) (in solution)
[16] = days 1 and 5, in suspension, read-out: ILS (%) (in suspension)

Cl.NC1CCN(c2ccc3c(=O)c(C(=O)O)cn(-c4nccs4)c3n2)C1 (stereo not shown) [Compound 3, 7-(3-amino-1-pyrrolidinyl)-1,4-dihydro-4-oxo-1-(2-thiazolyl)-1,8-naphthyridine-3-carboxylic acid hydrochloride]
IC50 [1]: 0.0103 µg/mL
IC50 [2]: 0.153 µg/mL
IC50 [3]: 0.21 µg/mL
IC50 [4]: 0.181 µg/mL
IC50 [5]: 0.364 µg/mL
IC50 [6]: 1.08 µg/mL
IC50 [7]: 0.184 µg/mL
IC50 [8]: 0.0588 µg/mL
ILS at 1.56 mg/kg [9, 14]: 20 to 74%
ILS at 3.13 mg/kg [9, 14]: > 75%
ILS at 6.25 mg/kg [9, 14]: > 75%
ILS at 12.5 mg/kg [9, 14]: > 75%
ILS at 25 mg/kg [9, 14]: > 75%
ILS at 1.56 mg/kg [9, 15]: 63%
ILS at 3.13 mg/kg [9, 15]: 75%
ILS at 3.13 mg/kg [9, 16]: 88%
ILS at 6.25 mg/kg [9, 15]: 113%
ILS at 12.5 mg/kg [9, 15]: 188%
ILS at 12.5 mg/kg [9, 16]: 175%
ILS at 25 mg/kg [9, 15]: > 275%
inhibition in vivo at 3.13 mg/kg [10]: 77%
LD50 at 336 h ([11]; Intraperitoneal administration (ip)): 55.2 mg/kg
LD50 at 336 h ([11]; Intravenous administration (iv)): 119 mg/kg
solubility [12]: 8300 µg/mL

NCC1CCN(c2c(F)cc3c(=O)c(C(=O)O)cn(C4CC4)c3c2F)C1 (stereo not shown) [Compound G]
anti-tumor activity, in words [13]: has anti-tumor activity

Reference: US5817669A, “Compounds, processes for the preparation thereof and anti-tumor agents” (Dainippon Pharmaceutical Co., Ltd., priority 1994, dated 1998)
